What was measured:
[1] = tested on: Puccinia recondita; experiment: Example F: in vivo test on Puccinia recondita (wheat brown rust); conditions: 240 h, wheat plants sprayed 24 hours before inoculation, scored after 10 days, read-out: % Wirkungsgrad
Method: In Vivo Test on Puccinia Recondita (Wheat Brown Rust) An aqueous suspension of the active substance was prepared by homogenization of a mixture of acetone/Tween/dimethyl sulphoxide and subsequent dilution with water to the desired concentration. Wheat plants (variety: Scipion) are sown in cultivation dishes on a peat-pozzolanic earth substrate (50/50) at 12° C. and sprayed at the first-leaf stage (10 cm size) with the aqueous suspension described above. As a control, plants are sprayed with an aqueous solution with no active substance. After 24 hours the plants are inoculated by spraying with an aqueous suspension of Puccinia recondita spores (100,000 spores per ml). The spores are derived from a 10 day-old infected wheat crop and are suspended in water with 2.5 ml/l Tween. […] After 10 days they are scored in comparison with the control plants.

[2] = tested on: Pyricularia grisea; type: in vivo; conditions: 500 ppm; rice plants sprayed 24 hours before inoculation; scored after 6 days
[3] = tested on: Phakopsora pachyrhizi; experiment: Example Z: in vivo test on Phakopsora pachyrhizi (soya bean rust/protective); conditions: soya bean rust, protective, 250 ppm active substance, assessed 11 days after inoculation

SMILES | pest or weed control at 500 ppm [1] [%] | % Activity level [2] [%] | % Activity level [3] [%]
CC(C)Cn1cc(-c2ccncc2)c(-c2ccc(F)cc2)n1 [Compound 1] | 89 | 82 | 91
CC(C)C(=O)Nc1cc(-c2cn(C(C)C)nc2-c2ccc(F)cc2)ccn1 [Compound 84] | 78 | – | 98

— patent US20110183978A1, “Phenylpyri(mi)dinylazoles” (Bayer CropScience AG, priority 2009, published 2011)
